One molecule from patent publication US20200022995A1, “Novel Immunodulating Small Molecules” (AyuVis Research, Inc., priority 2018, published 2020) can be followed below.

Each structure is given as a SMILES string.

One data set relates to HUVECs. The data set can be described thus: Anti-angiogenic activity, VEGF induced tube formation in HUVECs. As to conditions: VEGF 100 ng/mL. Format: cell-based, human. On the procedure:
Selected TLR2/4 antagonist compounds 2, 6, 7, 8, 14, 17 and 32 were evaluated for anti-angiogenic activity using the Tube Formation kit (Cat #3470-096-K). VEGF (100 ng/mL) was used as positive control. These compounds have potential applications in diseases associated with pathological angiogenesis such as solid tumor, […], diabetic retinopathy as well as AMD.

A further data set concerns neonatal pups with BPD. The data set can be described thus: Hyperoxia mouse model of BPD (newborn pups). Format: in vivo. The text has this:
Neonatal mice and humans undergo similar stages of lung development but differ with respect to the duration of each stage and its temporal relationship to gestational age. The lungs of the mouse born at term are in the saccular stage and are surfactant sufficient; this can be considered somewhat akin to a human preterm neonate in the same stage of lung development that has been exposed to a full complement of antenatal steroids (which is known to enhance surfactant production). In terms of mimicking the human condition, the most successful hyperoxia models are those that limit exposure to hyperoxia to the saccular stage of pulmonary development. The mouse BPD model involves exposing newborn mice (postnatal day 1 or PN1) to 100% oxygen till PN4 followed by recovery in room air (RA) for another 10 days.
After the recovery period, their lungs were harvested and processed for quantitative PCR, western blotting, histopathology and ELISA.
Each of the compounds 3, 8 or 32 encapsulated in PLGA nanoparticles referred as 3NP, 8NP and 32NP was instilled intranasally (IN) as nanosuspension to newborn pups on PN2 and PN4 at different doses (FIG. 28). After the recovery period, their lungs were harvested and processed for quantitative PCR, western blotting and histopathology and ELISA.
BPD is characterized by large simplified alveoli, inflammation, increased cell death, decreased cell proliferation, dysmorphic capillary configuration, and variable interstitial cellularity and/or fibroproliferation. […] This is determined by measuring the alveolar chord length, septal thickness and radial alveolar count (RAC). In BPD, the alveolar area increases which is characterized by increase in the diameter of the alveolar sacs, the septa become thickened (thus interfering in gaseous exchange) and the RAC, a parameter used to assess the complexity of terminal respiratory unit by pulmonologists, decreases as a result of arrested lung development.

The test system of the next data set is hPBMC. Kind of data set: Cytotoxicity in hPBMC (MTT). Format: cell-based, human. As to conditions: 0.1, 1.0, 10, 100 and 1000 μM, 24 h. On the procedure: The cells were treated with compounds and incubated for 24 h. Cell viability was assessed using MTT cell proliferation kit (Promega). All the compounds were not toxic to hPMBC (FIG. 12).
In data set [1] the test system is LPS-induced lung injury in mice. Kind of data set: LPS-induced ALI model. The format is in vivo, C57BL/6 mice. As to conditions: IP. The text has this:
Male C57BL/6 mice (Jackson Laboratories,) 12-15 weeks old, 25-28 gms, housed up to 5 per cage were used.
The lungs were sectioned for histopathological assessment after H/E staining while the BAL fluid was used to detect total cell counts (neutrophils and macrophages) and measure protein (that exudes by leakage).

Another data set addresses T1, TLR6 (Homo sapiens, UniProt Q9Y2C9).
T1 construct: in combination with TLR6 ligand Pam2CSK4 in hPBMC after 24 h of treatment; endogenous in cells; host or cells: hPBMC
T1 sequence (Q9Y2C9 32-796): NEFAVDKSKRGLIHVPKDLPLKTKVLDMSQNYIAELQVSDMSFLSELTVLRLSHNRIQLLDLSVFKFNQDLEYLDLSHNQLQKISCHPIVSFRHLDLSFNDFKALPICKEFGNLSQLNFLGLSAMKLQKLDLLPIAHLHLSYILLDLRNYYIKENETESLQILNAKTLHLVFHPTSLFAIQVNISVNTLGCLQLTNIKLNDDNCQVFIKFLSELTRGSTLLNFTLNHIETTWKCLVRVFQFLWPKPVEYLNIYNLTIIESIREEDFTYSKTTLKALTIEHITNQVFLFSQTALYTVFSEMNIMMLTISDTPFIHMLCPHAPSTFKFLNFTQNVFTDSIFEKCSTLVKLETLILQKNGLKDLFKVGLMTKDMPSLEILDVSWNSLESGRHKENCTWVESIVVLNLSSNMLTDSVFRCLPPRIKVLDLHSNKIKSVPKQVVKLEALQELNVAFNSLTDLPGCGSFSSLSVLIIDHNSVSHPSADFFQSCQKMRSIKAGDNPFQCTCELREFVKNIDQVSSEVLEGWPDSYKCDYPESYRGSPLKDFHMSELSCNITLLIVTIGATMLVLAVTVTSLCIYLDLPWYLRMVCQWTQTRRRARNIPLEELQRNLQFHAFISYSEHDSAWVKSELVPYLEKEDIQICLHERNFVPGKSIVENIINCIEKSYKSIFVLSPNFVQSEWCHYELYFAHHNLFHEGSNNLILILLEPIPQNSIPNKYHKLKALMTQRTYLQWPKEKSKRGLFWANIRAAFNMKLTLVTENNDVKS
Kind of data set: IL-6 ELISA in hPBMC with TLR6 ligand Pam2CSK4. Format: cell-based. The settings on record: 24 h. On the procedure: Compound 8 stimulates the TLR6 activities and upregulates the production of IL-6 cytokine in combination with TLR6 ligand Pam2CSK4 in hPBMC after 24 h of treatment as detected by ELISA (FIG. 9).

Data set [2] concerns P. aeruginosa (ATCC-10145 GFP) infected skin wounds. The data set can be described thus: Murine skin wound infection with P. aeruginosa. Format: in vivo, C57BL/6 mice. On the procedure: Five groups of C57BL/6 mice (8-10 weeks old, n=4) were wounded on the dorsal surface. 25 ul containing 10^6 CFU/mL P. aeruginosa in a PBS suspension were pipetted onto the wound and allowed to absorb for at least 3 min. […] Subsequently and for the next 13 days, infected wounds were treated each alternate day with colistin, or with test compounds.

Regarding `CC(=O)N[C@H]1[C@H](Oc2ccc([N+](=O)[O-])cc2)O[C@H](CO)[C@@H](O)[C@@H]1O` [Compound 8, p-Nitrophenyl 2-acetamido-2-deoxy-β-D-glucopyranoside], in the data set with HUVECs, the “VEGF induced tube formation” value is listed as “significantly deceased”. Also, in the data set with neonatal pups with BPD (10 mg/kg, ELISA), the “anti-inflammatory cytokine IL-10” value is listed as “increase”; the “inflammatory cytokines and chemokines (MIP-2, MCP-1, IL-17, IFN-Y, TNF-α, IL-1β, and IL-6)” value is on record as “decreases”. For the same molecule, the “lung injury in neonatal pups with BPD” value in the data set with neonatal pups with BPD (mouse model of BPD) is on record as “prevent lung injury”. Also, in the data set on neonatal pups with BPD (neonatal pups with BPD), the “TLR4 inhibition in an in vivo model system” value was “inhibit TLR4”. For the same molecule, the lung architecture result with neonatal pups with BPD (saline IV and nanosuspension IN) was “restored”. Further, the “cytotoxicity in hPBMC” value in the data set on hPBMC is listed as “not toxic”. Also, the “protection against LPS induced lung injury” value in data set [1] (10 mg/kg at 4 h and 12 h post LPS) is on record as “significant protection”. Moreover, the LPS-induced lung inflammation entry in data set [1] (10 mg/kg, mice) is “ameliorated”. Also, at TLR6, the “production of IL-6 cytokine” value is on record as “upregulates”. Besides, the “wound closure at day 13” value in data set [2] (25 μl Colistin 4 μg/ml or compound 100 μg/ml, each alternate day) is on record as “complete closure”. Further, in data set [2] (13 days post infection), the “bacterial numbers versus untreated control” value is given as “statistically significant reduction”. In data set [2] (H&E histology, day 13 post-injury), the “re-epithelialization and granulation tissue versus controls” value is on record as “borderline non-significant”. In data set [2] (topical, 100 μM, C57BL6 mice), the CFU in tissues entry was “decreased” and the “closure of P. aeruginosa infected skin wounds” value is on record as “effectively closed”.
